Source: patent US11787833B2, “Modified cyclic dinucleoside compounds as sting modulators” (ALIGOS THERAPEUTICS, INC., priority 2019, dated 2023)
Read-outs that look alike come from different tables or passages of the source.

Target: T1, 293T-Dual hSTING-R232 cells (Homo sapiens, UniProt Q86WV6, H232R)
T1 construct: host or cells: 293T-Dual hSTING-R232 cells (HEK 293T)
Experiment: 293T R232 cell reporter assay (HEK 293T reporter assay)
Assay type: cell-based
Settings: digitonin 10 μg/mL, 30 min exposure, 20 h incubation
Method: 293T-Dual hSTING-R232 cells (Invivogen) were plated in 96 well plates at a density of 5×10^4 cells per well in DMEM supplemented with 10% FBS, 1% Pen-Strep, 1% non-essential amino acids, 1% glutamine, and 1% HEPES. Assay setup took place after allowing cells to adhere for 48 h. Compounds dissolved in water were serially diluted in dosing buffer containing 10 μg/mL digitonin. Media was aspirated from the cells, and 50 μL buffer with compound was added in triplicate. After 30 min at 37° C., buffer was aspirated and replaced with 100 μL media. Cells were incubated for 20 h at 37° C., 5% CO2. IFN-beta expression and activation of the interferon regulatory factor (IRF) were measured based on luciferase and alkaline phosphatase reporter activity, respectively. Cell viability was determined in parallel.

[1] = alkaline phosphatase reporter, read-out: EC50 [μM] IRF reporter
[2] = luciferase reporter, read-out: EC50 [μM] IRN-β reporter
[3] = EC50 [μM] IRF reporter, alkaline phosphatase reporter
[4] = EC50 [μM] IRN-β reporter, luciferase reporter

T1 sequence (Q86WV6 whole entry H232R): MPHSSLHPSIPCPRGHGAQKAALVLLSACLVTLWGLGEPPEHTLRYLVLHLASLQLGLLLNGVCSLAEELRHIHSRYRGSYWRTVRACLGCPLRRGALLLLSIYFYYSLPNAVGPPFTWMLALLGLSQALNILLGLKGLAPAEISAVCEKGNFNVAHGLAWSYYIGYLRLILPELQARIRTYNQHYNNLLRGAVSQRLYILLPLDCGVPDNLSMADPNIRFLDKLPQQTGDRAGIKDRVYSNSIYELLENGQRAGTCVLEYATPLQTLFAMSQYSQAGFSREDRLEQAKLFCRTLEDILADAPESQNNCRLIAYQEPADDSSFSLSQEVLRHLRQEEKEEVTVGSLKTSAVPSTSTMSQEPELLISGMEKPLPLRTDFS

Row | SMILES | EC50 [1] [µM] | EC50 [2] [µM] | EC50 [3] [µM] | EC50 [4] [µM]
1 | COC1C2COP(=O)(S)OC3C(COP(=O)(S)OC1C(c1snc4c(=O)[nH]c(N)nc14)O2)OC(n1cnc2c(N)ncnc21)C3F (single isomer, unassigned) [Compound 1-48b] | < 0.25 | < 0.25 |  | 
2 | Nc1ncnc2c1ncn2[C@H]1[C@H](O)[C@@H]2O[P@](=O)([S][Na])OC[C@H]3O[C@@H](n4cnc5c(=O)[nH]cnc54)[C@H](F)[C@@H]3OP(=O)(O)OC[C@@]23C[C@H]13 [Compound 1-20a] |  |  | 0.25 to 100 | 0.25 to 100
3 | Nc1nc2c(ncn2C2SC3COP(=O)(S)OC4C(O)C(n5cnc6c(N)ncnc65)C5CC54COP(=O)(O)OC2C3O)c(=O)[nH]1 (single isomer, unassigned) [Compound 1-30b] | > 100 | > 100 |  | 
4 | COC1C2COP(=O)(S)OC3C(COP(=O)(S)OC1C(c1snc4c(=O)[nH]c(N)nc14)O2)OC(n1cnc2c(N)ncnc21)C3F (stereo not shown) [Compound 1-48c] | < 0.25 | 0.25 to 100 |  | 
5 | COC1C2COP(=O)(S)OC3C(COP(=O)(S)OC1C(c1snc4c(=O)[nH]c(N)nc14)O2)OC(n1cnc2c(N)ncnc21)C3F (single isomer, unassigned) [Compound 1-48a] | 0.25 to 100 | 0.25 to 100 |  | 
6 | Nc1nc2c(ncn2[C@@H]2O[C@@H]3CO[P@@](=O)([S][Na])O[C@H]4[C@@H](O)[C@H](n5cnc6c(N)ncnc65)[C@H]5C[C@]54COP(=O)(O)O[C@@H]2[C@@H]3F)c(=O)[nH]1 [Compound 1-22a] |  |  | 0.25 to 100 | 0.25 to 100
7 | COC1C2COP(=O)(S)OC3C(COP(=O)(O)OC1C(n1cnc4c(=O)[nH]c(N)nc41)O2)C1CC1(n1cnc2c(N)ncnc21)C3O (stereo not shown) [Compound 1-16a] | 0.25 to 100 | 0.25 to 100 |  | 
8 | Nc1nc2c(ncn2[C@H]2[C@H](O)[C@@H]3OP(=O)(O)OC[C@]45C[C@@H]4[C@@H](n4cnc6c(N)ncnc64)[C@H](O)[C@@H]5O[P@](=O)([S][Na])OC[C@@]34C[C@H]24)c(=O)[nH]1 [Compound 1-38a] |  |  | > 100 | > 100
9 | COC1C2COP(=O)(S)OC3C(O)C(n4cnc5c(N)ncnc54)C4CC43COP(=O)(S)OC1C(n1cnc3c(=O)[nH]c(N)nc31)O2 (single isomer, unassigned) [Compound 1-6b] | 0.25 to 100 |  |  | 

The next lines start with results.

Row | EC50 [1] [µM] | EC50 [2] [µM] | SMILES | EC50 [3] [µM] | EC50 [4] [µM]
10 | 0.25 to 100 | > 100 | Nc1nc2c(ncn2[C@@]23C[C@H]2[C@@H]2COP(=O)(O)O[C@H]4[C@@H](F)[C@H](n5cnc6c(N)ncnc65)O[C@@H]4COP(=O)(O)O[C@@H]3[C@@H]2O)c(=O)[nH]1 [Compound 1-24] |  | 
11 | < 0.25 | < 0.25 | Nc1nc2c(ncn2[C@H]2[C@H](O)[C@@H]3OP(=O)(O)OC[C@H]4O[C@@H](n5cnc6c(N)ncnc65)[C@H](F)[C@@H]4OP(=O)(O)OC[C@@]34C[C@H]24)c(=O)[nH]1 [Compound 1-9] |  | 
12 | < 0.25 | < 0.25 | Nc1nc2c(ncn2[C@@H]2O[C@@H]3COP(=O)(O)O[C@@H]4[C@@H](COP(=O)(O)O[C@H]3[C@H]2O)[C@@H]2C[C@@]2(n2cnc3c(N)ncnc32)[C@@H]4O)c(=O)[nH]1 [Compound 1-17] |  | 
13 | < 0.25 | < 0.25 | CO[C@H]1[C@H]2OP(=O)(O)OC[C@@]34C[C@@H]3[C@@H](n3ccc5c(N)ncnc53)[C@H](O)[C@@H]4OP(=O)(O)OC[C@H]1O[C@H]2n1cnc2c(=O)[nH]c(N)nc21 [Compound 1-4] |  | 
14 | < 0.25 | 0.25 to 100 | CO[C@H]1[C@H]2OP(=O)(O)OC[C@@]34CO[C@@H]([C@H](n5cnc6c(N)ncnc65)O3)[C@@H]4OP(=O)(O)OC[C@H]1O[C@H]2c1snc2c(=O)[nH]c(N)nc12 [Compound 1-49] |  | 
15 | < 0.25 | 0.25 to 100 | Nc1nc2c(ncn2C2OC34COC2C3OP(=O)(O)OCC2OC(c3snc5c(N)ncnc35)CC2OP(=O)(O)OC4)c(=O)[nH]1 (stereo not shown) [Compound 1-52] |  | 
16 | < 0.25 | < 0.25 | COC1C2COP(=O)(O)OC3CC(c4snc5c(N)ncnc45)OC3COP(=O)(O)OC1C(n1cnc3c(=O)[nH]c(N)nc31)O2 (stereo not shown) [Compound 1-25] |  | 
